In patent US11427586B2, “1,2,4-oxadiazole derivatives as liver X receptor agonists” (NOVARTIS AG, priority 2019, dated 2022) one finds Emax and EC50 data, which are given here for nine molecules.

Where two headings read alike, the source gives them in different places.

One test relates to SCD1. Description: Measurement of SCD1 expression in SZ95-SCD1-HiBit cells (HiBiT assay). The test is classed as cell-based. To be noted: Homo sapiens; for EC50: read-out: HiBit EC50. An excerpt:
Measurement of SCD1 Expression in SZ95-SCD1-HiBit Cells
SCD1 expression levels in SZ95 cells were quantitated using the HiBiT system (Promega) in which a small peptide sequence (SmBiT) with a larger protein (LgBiT) reconstitutes luciferase activity and can generate a luminescent signal used for quantitation. SZ95-SCD1-HiBit cells were generated by editing the SCD1 gene of SZ95 cells resulting in the addition of an 8 amino acid linker sequence (gssggssg, SEQ ID NO:1) followed by an 11-amino acid SmBiT sequence (vsgwrlfkkis, SEQ ID NO:2) at the carboxy-terminus of the SCD1 protein. The gRNA targeting sequence used was […] (SEQ ID NO: 3) and the SCD1 insertion oligonucleotide encoding the SmBiT sequence was:
SZ95-SCD1-HiBit cells were seeded in 384-well cell culture white plates at a density of 3000 cells/30 μl. Water was added to edge wells to avoid evaporation. Cells were incubated in a humidified incubator with 5% CO2 at 37° C. overnight. Tested compounds were diluted at a ratio of 1:3 in DMSO using an Agilent BRAVO Automated Liquid Handling Platform and, after further serial dilutions, added to cells at final concentrations starting from 18 μM. 2-(3-(3-((2-chloro-3-(trifluoromethyl)benzyl)(2,2-diphenylethyl)amino)propoxy)phenyl)acetic acid was used as a reference compound in each plate. Cells in the assay plate were incubated in a humidified incubator with 5% CO2 at 37° C. for 48 h.
The assay plates were removed from the incubator and allowed to equilibrate to room temperature. Nano-Glo® HiBiT Detection Reagent (Promega; a mixture of Nano-Glo HiBiT Detection Buffer, Nano-Glo HiBiT Detection Substrate, and LgBiT protein, according to the manufacturer's instructions) was added into assay plates, at a volume equal to cell culture medium in each well. Plates were placed on an orbital shaker at a speed of 300-600 rpm for 10 min at room temperature, and read on an EnVision Plate Reader using luminescence detection with a 1 second read time.
The assay measures the increase in SCD1 protein production in vitro. Amax refers to the percent EC50 of the tested compound compared to a reference compound, 2-(3-(3-((2-chloro-3-(trifluoromethyl)benzyl)(2,2-diphenylethyl)amino)propoxy)phenyl)acetic acid.
A general note: With HiBiT, luminescence reflects the tagged protein that the partner subunit can reach.

A further test deals with SZ95 sebocytes. Briefly: Sentinel Lipid Assay (SLA), desaturation index in SZ95 sebocytes. The test is classed as cell-based. Particulars: Homo sapiens, 72 h; for EC50: read-out: SLA EC50. As to the method:
Sentinel Lipid Assay (SLA)
The sentinel lipid assay was used quantify the change in the global desaturation index in SZ95 sebocytes upon administration of certain LXR agonist compounds provided herein. The assay measures a smaller subset of lipid analytes in meibum (termed “sentinel lipids”) which would model the global changes the population of both saturated and desaturated lipids in the cells. In order to define this smaller subset of lipids, a complete lipid profile was recorded on dose response curves (eight levels from 4 nM to 10 uM) of Compounds 1-72. An elastic net regression model was applied separately to both the saturated and desaturated lipids to determine the minimum combination of coefficients and analytes, which could be used to adequately model the total population of lipids. The elastic net model was able to reduce the behavior of 425 lipids to 11 lipids and the correlation between the desaturation indices observed using the complete set of lipids with from the 11 sentinel lipids was 0.96.
A medium throughput assay was created using this reduced set of sentinel lipids. A single batch is defined as triplicate examples of three unique plates (i.e., a single batch of cells is used to create nine plates for LC-MSMS analysis). Lipids were extracted from the cells using a 1:1 mixture of methylene chloride/methanol containing 10 nM of deuterated standards of triglycerides, which are used as internal standards for quantitating the lipid abundance. The lipids were separated prior to mass spectrometric analysis using a five minute HPLC gradient. The abundance of the sentinel lipids and the internal standards are measured using multiple reaction monitor mode (MRM) on a triple quadrupole mass spectrometer. The data was transformed from total ion current to nmoles/10^6 cells, which are multiplied by the coefficients from the elastic net model to determine the effective desaturated and saturated content, and therein the desaturation index of the dosed cells. In order to compare compounds from multiple batches with one another, the measure raw desaturation index was normalized by dividing it by the desaturation index of the DMSO dosed cells, and all data was assessed as the fraction by which the compound increases the desaturation index above 1.
SZ95 (immortalized human sebaceous gland cells) cells were seeded in Greiner bio-one 96-well polypropylene plates that were pre-treated with 50 μg/mL Human Plasma Fibronectin (Thermo Fisher Scientific) at a density of 10^4 cells/135 μl. Cells were incubated in a humidified incubator with 5% CO2 at 37° C. overnight. Test compounds were diluted at a ratio of 1:3 and added to cells at final concentrations starting from 10 μM. 2-(3-(3-((2-chloro-3-(trifluoromethyl)benzyl)(2,2-diphenylethyl)amino)propoxy)phenyl)acetic acid was used as a positive control reference compound in each plate. Cells in the assay plate were incubated in a humidified incubator with 5% CO2 at 37° C. for 72 h.
Culture medium was removed from the cells and cells in culture plates were washed with ice cold phosphate buffered saline three times. Plates were heat sealed and stored in a −80° C. freezer prior to Sentinel lipid assay. The Amax value refers to the percent EC50 of the tested compound compared to a reference compound, 2-(3-(3-((2-chloro-3-(trifluoromethyl)benzyl)(2,2-diphenylethyl)amino)propoxy)phenyl)acetic acid.

[1] abbreviates: 48 h, normalized Amax based on the reference compound Amax of 100%, read-out: HiBit Normalized Amax.
The mark [2] stands for this setting: SZ95-SCD1-HiBit cells, 48 h, SCD1 protein production, luminescence, initial dilution 1:3 in DMSO.
Where [3] appears, read: SZ95-SCD1-HiBit cells, 48 h, compared to reference compound, read-out: HiBit Amax.
Where [4] appears, read: normalized Amax based on the reference compound Amax of 100%, read-out: SLA Normalized Amax.
Setting [5] is: SZ95 cells, desaturation index, lowest dose used 4.6 nM.
[6] abbreviates: SZ95 cells, compared to reference compound, read-out: SLA Amax.
Setting [7] is: footnote a: initial dilution for the compound 1:100 in assay medium rather than 1:3 in DMSO.

With `CC(C)CS(=O)(=O)c1ccccc1Oc1ccc(-c2noc(CN3C(=O)N(CCC4CCOCC4)C4(CCN(C(=O)c5cnccn5)CC4)C3=O)n2)cc1C(F)(F)F` [Compound 36, 3-((3-(4-(2-(isobutylsulfonyl)phenoxy)-3-(trifluoromethyl)phenyl)-1,2,4-oxadiazol-5-yl)methyl)-8-(pyrazine-2-carbonyl)-1-(2-(tetrahydro-2H-pyran-4-yl)ethyl)-1,3,8-triazaspiro[4.5]decane-2,4-dione], the Emax is 81.5% in the test on SCD1 (setting [1]), 77.5% in the test with SCD1 (setting [3]), 131% in the test with SZ95 sebocytes (setting [4]) and 126% in the test on SZ95 sebocytes (setting [6]). For the same molecule, the EC50 (in general, the concentration that produces a half-maximal response) in the test on SCD1 (setting [2]) was 0.119 nM; in the test on SZ95 sebocytes (setting [5]), ≤ 4.6 nM.
For the molecule `CC(COc1ccc(-c2noc(CN3C(=O)N(CCN4CCOCC4)C4(CCN(C(=O)c5cncnc5)CC4)C3=O)n2)cc1C(F)(F)F)(C(F)(F)F)C(F)(F)F` [Compound 30, 1-(2-morpholinoethyl)-8-(pyrimidine-5-carbonyl)-3-((3-(4-(3,3,3-trifluoro-2-methyl-2-(trifluoromethyl)propoxy)-3-(trifluoromethyl)phenyl)-1,2,4-oxadiazol-5-yl)methyl)-1,3,8-triazaspiro[4.5]decane-2,4-dione], the Emax in the test with SCD1 (setting [1]) amounted to 89.3%; with SCD1 (setting [3]), 84.9%; in the test on SZ95 sebocytes (setting [4]), 85.5%; in the test on SZ95 sebocytes (setting [6]) it was 82.1%. Moreover, the EC50 amounted to 1.04 nM in the test with SCD1 (setting [2]) and 34.4 nM in the test with SZ95 sebocytes (setting [5]).
`CC(C)CS(=O)(=O)c1ccccc1Oc1ccc(-c2noc(CN3C(=O)N(CCCN4CCCC4)C(C)(C)C3=O)n2)cc1C(F)(F)F` [Compound 50b, 3-((3-(4-(2-(isobutylsulfonyl)phenoxy)-3-(trifluoromethyl)phenyl)-1,2,4-oxadiazol-5-yl)methyl)-5,5-dimethyl-1-(3-(pyrrolidin-1-yl)propyl)imidazolidine-2,4-dione]: the Emax in the test with SCD1 (setting [1]) amounted to 67.1%; in the test with SCD1 (setting [3]) it was 63.8%; in the test with SZ95 sebocytes (setting [4]), 60.6%; in the test on SZ95 sebocytes (setting [6]), 58.2%. Moreover, the EC50 stood at 29.8 nM in the test on SCD1 (setting [2]) and 23.7 nM in the test with SZ95 sebocytes (setting [5]).
`CC(C)CS(=O)(=O)c1ccccc1Oc1ccc(-c2noc(CN3C(=O)NC(C)(C)C3=O)n2)cc1C(F)(F)F` [Compound 50a, 3-((3-(4-(2-(isobutylsulfonyl)phenoxy)-3-(trifluoromethyl)phenyl)-1,2,4-oxadiazol-5-yl)methyl)-5,5-dimethylimidazolidine-2,4-dione]: the Emax in the test on SCD1 (setting [1]) was found to be 70.5%; with SCD1 (setting [3]), 67%. Further, in the test with SCD1 (setting [7]), the EC50 amounted to 255 nM.
In the case of `CC(COc1ccc(-c2noc(CN3C(=O)N(CCC4CCOCC4)C4(CCN(C5CCC5)CC4)C3=O)n2)cc1C(F)(F)F)(C(F)(F)F)C(F)(F)F` [Compound 63, 8-cyclobutyl-1-(2-(tetrahydro-2H-pyran-4-yl)ethyl)-3-((3-(4-(3,3,3-trifluoro-2-methyl-2-(trifluoromethyl)propoxy)-3-(trifluoromethyl)phenyl)-1,2,4-oxadiazol-5-yl)methyl)-1,3,8-triazaspiro[4.5]decane-2,4-dione], the Emax in the test with SCD1 (48 h, read-out: HiBit Amax) came out at 74.6%; with SCD1 (48 h, read-out: HiBit Normalized Amax), 78.4%; with SZ95 sebocytes (read-out: SLA Amax), 72.2%; in the test with SZ95 sebocytes (read-out: SLA Normalized Amax), 75.2%. Besides, the figures for the EC50 in the test with SCD1 (48 h) and in the test on SZ95 sebocytes were 0.217 nM and ≤ 4.6 nM, respectively.
`CC(C)CS(=O)(=O)c1ccccc1Oc1ccc(-c2noc(CN3C(=O)N(CCN4CCOCC4)C4(CCN(C5CCN(C)C5)CC4)C3=O)n2)cc1C(F)(F)F` (stereo not drawn) [Compound 23, 3-((3-(4-(2-(isobutylsulfonyl)phenoxy)-3-(trifluoromethyl)phenyl)-1,2,4-oxadiazol-5-yl)methyl)-8-(1-methylpyrrolidin-3-yl)-1-(2-morpholinoethyl)-1,3,8-triazaspiro[4.5]decane-2,4-dione]: the Emax in the test with SCD1 (setting [1]) is 85.1%; with SCD1 (setting [3]), 80.9%; in the test on SZ95 sebocytes (setting [4]), 176%; in the test on SZ95 sebocytes (setting [6]), 169%. Further, the EC50 was 3.48 nM in the test on SCD1 (setting [2]) and ≤ 4.6 nM in the test with SZ95 sebocytes (setting [5]).
`CC1(C)C(=O)N(Cc2nc(-c3ccc(Oc4cnccc4C(F)(F)F)c(C(F)(F)F)c3)no2)C(=O)N1CCN1CCOCC1` [Compound 65, 5,5-dimethyl-1-(2-morpholinoethyl)-3-((3-(3-(trifluoromethyl)-4-((4-(trifluoromethyl)pyridin-3-yl)oxy)phenyl)-1,2,4-oxadiazol-5-yl)methyl)imidazolidine-2,4-dione]: the Emax in the test with SCD1 (setting [1]) was found to be 69.8%; with SCD1 (setting [3]) it was 66.4%; in the test with SZ95 sebocytes (setting [4]), 108%; in the test with SZ95 sebocytes (setting [6]) it was 104%. For the same molecule, the half-maximal effective concentration (EC50) was 15.1 nM in the test on SCD1 (setting [2]) and ≤ 4.6 nM with SZ95 sebocytes (setting [5]).
For `O=C(O)CCCCC(=O)N1CCC2(CC1)C(=O)N(Cc1nc(-c3ccc(Oc4ccccc4C(F)(F)F)c(C(F)(F)F)c3)no1)C(=O)N2CCN1CCOCC1` [Compound 69, 6-(1-(2-morpholinoethyl)-2,4-dioxo-3-((3-(3-(trifluoromethyl)-4-(2-(trifluoromethyl)phenoxy)phenyl)-1,2,4-oxadiazol-5-yl)methyl)-1,3,8-triazaspiro[4.5]decan-8-yl)-6-oxohexanoic acid], the Emax in the test on SCD1 (setting [1]) was 76.4%; with SCD1 (setting [3]), 72.7%. Further, the EC50 with SCD1 (setting [2]) was 0.665 nM.
For the molecule `CC(C)CS(=O)(=O)c1ccccc1Oc1ccc(-c2noc(CN3C(=O)N(CCN4CCOCC4)C4(CCN(C(=O)CCC(=O)O)CC4)C3=O)n2)cc1C(F)(F)F` [Compound 68, 4-(3-((3-(4-(2-(isobutylsulfonyl)phenoxy)-3-(trifluoromethyl)phenyl)-1,2,4-oxadiazol-5-yl)methyl)-1-(2-morpholinoethyl)-2,4-dioxo-1,3,8-triazaspiro[4.5]decan-8-yl)-4-oxobutanoic acid], the Emax in the test with SCD1 (setting [1]) turned out to be 84%; with SCD1 (setting [3]) it was 79.9%. The EC50 in the test on SCD1 (setting [7]) was 4.6 nM.
